The subject of test [1] is LoVo. The test can be described thus: Antiproliferative activity against human LoVo cells after 72 hrs by SRB assay. It is filed as functional, cell-based. A general note: The SRB assay estimates cell density from bound dye.
Test [2] in a line: Antiproliferative activity against human LoVo/DX cells after 72 hrs by SRB assay. It counts as functional, cell-based.
Test [3] concerns LoVo. The test can be described thus: Cell cycle arrest in human LoVo cells assessed as accumulation at G2/M phase at 15 uM after 24 hrs by propidium iodide staining based flow cytometry (reference value: 21%). It is filed as functional. (In general: In flow cytometry, cells or beads pass a laser one at a time.)
Test [4] concerns LoVo. The test can be described thus: Induction of apoptosis in human LoVo cells assessed as caspase-3 activation at 15 uM after 24 hrs by Ac-DEVD-ACC substrate based fluorescence assay relative to control. It is filed as functional.
The subject of a further test is BALB/3T3. The test can be described thus: Antiproliferative activity against mouse BALB/3T3 cells after 72 hrs by MTT assay. It is filed as cell-based. As to conditions: BALB/3T3, 72 h.
The next test relates to HL60/MX2. Nature of the test: Antiproliferative activity against human HL60/MX2 cells after 72 hrs by SRB assay. It counts as functional, cell-based. As to conditions: HL60/MX2, 72 h.
Another test concerns 4T1. Nature of the test: Antiproliferative activity against mouse 4T1 cells after 72 hrs by MTT assay. It counts as functional, cell-based. To be noted: 4T1, 72 h. (In general: Tetrazolium assays rely on reduction of a dye to a coloured formazan, in cell work by metabolically active cells.)
Another test concerns HL-60. The test can be described thus: Antiproliferative activity against human HL60 cells after 72 hrs by SRB assay. It counts as functional, cell-based. To be noted: HL-60, 72 h.
The subject of the next test is MES-SA. The test can be described thus: Antiproliferative activity against human MES-SA cells after 72 hrs by SRB assay. It is filed as functional, cell-based.
A further test relates to MES-SA/Dx5. The test can be described thus: Antiproliferative activity against human MES-SA/Dx5 cells after 72 hrs by SRB assay. It counts as functional, cell-based. As to conditions: MES-SA/Dx5, 72 h.
Test [5] can be described thus: Resistance index, ratio of IC50 for antiproliferative activity against human HL60/MX2 cells to IC50 for antiproliferative activity against human HL60 cells. It is filed as functional.

Structures are written as SMILES. Active and inactive are the calls of the source. The rule behind the calls is not given here. Bounds are passed on as bounds.

In general, IC50 refers to the midpoint of a concentration-inhibition curve. Read a high IC50 as weaker potency in that assay. Turning to `CC(=O)N[C@@H](CSC(=S)NCCCCCP(=O)(OCC(C)C)OCC(C)C)C(=O)O`, the IC50 in the test with LoVo [1] was 2.6 µM; in test [2], 8.8 µM.
Consider `CCOC(OCC)P(=O)(CCCCNC(=S)SC[C@H](NC(C)=O)C(=O)O)OCC` (some centres not stated), for which the IC50 with LoVo [1] worked out at 6.4 µM; in [2], 11.3 µM.
As to `CC(=O)N[C@@H](CSC(=S)NCc1ccccc1)C(=O)O`, the Activity in the test with LoVo [3] was determined as 49%. Also, the IC50 in the test with LoVo [1] came to 11.5 µM; in [2] it was 15.4 µM. For the same molecule, the “fold change (FC)” value in the test on LoVo [4] is on record as over 10.
As for `O=P(CCCCN=C=S)(c1ccccc1)c1ccccc1`, the IC50 (in the test on LoVo [1]; in test [2]) was 2.2 µM throughout.
As to `CCOP(=O)(CCCCCCNC(=S)SC[C@H](NC(C)=O)C(=O)O)OCC`, the 50% inhibitory concentration (IC50) was 2.2 µM in the test with LoVo [1] and 2.6 µM in [2].
As to `COP(=O)(CCCCN=C=S)c1ccccc1` (configuration not stated), the IC50 in the test on LoVo [1] was 3.1 µM; in [2] it was 2.3 µM.
For `CCOC(OCC)P(=O)(CCCCCCN=C=S)OCC` (configuration not stated), the IC50 in the test on LoVo [1] worked out at 5.1 µM; in test [2], 10.6 µM.
Turning to `CCOP(=O)(CCCCCCNC(=S)SC[C@H](NC(C)=O)C(=O)O)c1ccccc1` (some centres not stated), the IC50 with BALB/3T3 came out at 7.9 µM; in the test on HL60/MX2, 0.7 µM; in the test with 4T1, 1.9 µM; with LoVo [1], 1.5 µM; in the test with HL-60, 0.4 µM; in test [2] it was 2.2 µM. Besides, the results for the IC50 in the test with MES-SA and in the test with MES-SA/Dx5 were 2.8 µM and 2.6 µM, respectively. Besides, the Activity with LoVo [3] is on record as 22%. In the test on LoVo [4], the “fold change (FC)” value came to 2.8.
`CC(=O)N[C@@H](CSC(=S)NCCCCCCP(=O)(OCC(C)C)OCC(C)C)C(=O)O`: the values for the IC50 (with LoVo [1]; in test [2]) were 11.1 µM and 10.9 µM, respectively.
With `CCOP(=O)(CCCCCNC(=S)SC[C@H](NC(C)=O)C(=O)O)c1ccccc1` (some centres not stated), the figures for the IC50 (in the test on LoVo [1]; in test [2]) were 2 µM and 3.3 µM, respectively.
Turning to `CCOC(OCC)P(=O)(CCCCCNC(=S)SC[C@H](NC(C)=O)C(=O)O)OCC` (some centres not stated), the IC50 is 3 µM in the test on LoVo [1] and 8.4 µM in test [2].
Consider `CC(=O)N[C@@H](CSC(=S)NCCCCP(=O)(Oc1ccccc1)Oc1ccccc1)C(=O)O`, for which the IC50 in the test with LoVo [1] was found to be 2.2 µM; in test [2], 7.9 µM.
On to `CC(=O)N[C@@H](CSC(=S)NCCP(=O)(OC(C)C)OC(C)C)C(=O)O`, for which the half-maximal inhibitory concentration (IC50) turned out to be 5 µM with LoVo [1] and 8.1 µM in test [2].
With `CC(=O)N[C@@H](CSC(=S)NCCCCCCP(=O)(OC(C)C)OC(C)C)C(=O)O`, the IC50 in the test on BALB/3T3 worked out at 10.9 µM; in the test with HL60/MX2, 3 µM; in the test on 4T1 it was 2.5 µM; with LoVo [1] it was 1.8 µM; in the test on HL-60, 0.6 µM; in [2] it was 3.4 µM. Moreover, the IC50 in the test with MES-SA was determined as 9.9 µM; with MES-SA/Dx5, 10.3 µM. The “Ratio IC50” value in test [5] is on record as 5. The Activity in the test with LoVo [3] is given as 24%. Moreover, the “fold change (FC)” value in the test with LoVo [4] is given as 2.2.
As to `CC(=O)N[C@@H](CSC(=S)NCCCP(=O)(OCC(C)C)OCC(C)C)C(=O)O`, the values for the IC50 (in the test on LoVo [1]; in [2]) were 19.3 µM and 17.9 µM, respectively.
Take `COP(=O)(CCCCCNC(=S)SC[C@H](NC(C)=O)C(=O)O)c1ccccc1` (some centres not stated): the IC50 in the test with LoVo [1] was 2.5 µM; in test [2], 2.6 µM.
Turning to `CCOP(=O)(CCCCCCN=C=S)c1ccccc1` (configuration not stated), the IC50 turned out to be 2.3 µM with LoVo [1] and 4 µM in test [2].
For `CC(=O)N[C@@H](CSC(=S)NCCCCP(=O)(OC(C)C)OC(C)C)C(=O)O`, in that order: 2.6 µM and 8.9 µM.
For `CC(=O)N[C@@H](CSC(=S)NCCP(=O)(Oc1ccccc1)Oc1ccccc1)C(=O)O`, in that order: 3.5 µM and 9 µM.
As for `CCOP(=O)(CCCNC(=S)SC[C@H](NC(C)=O)C(=O)O)OCC`, the values for the 50% inhibitory concentration (IC50) (in the test on LoVo [1]; in test [2]) were 2.2 µM and 2.5 µM, respectively.
`CC(=O)N[C@@H](CSC(=S)NCCCCCCP(=O)(c1ccccc1)c1ccccc1)C(=O)O`: the IC50 in the test with LoVo [1] was determined as 2.1 µM; in test [2], 8.1 µM.
As to `CCOP(=O)(CCCCNC(=S)SC[C@H](NC(C)=O)C(=O)O)OCC`, the figures for the IC50 (in the test on LoVo [1]; in test [2]) were 3.3 µM and 10 µM, respectively.
As to `O=P(CCN=C=S)(c1ccccc1)c1ccccc1`, the figures for the IC50 (with LoVo [1]; in test [2]) were 2 µM and 2.2 µM, respectively.
`COP(=O)(CCCCNC(=S)SC[C@H](NC(C)=O)C(=O)O)c1ccccc1` (some centres not stated): the IC50 in the test with LoVo [1] was 2.7 µM; in [2], 2.9 µM.
The corresponding values for `CCOC(OCC)P(=O)(CCCCCCNC(=S)SC[C@H](NC(C)=O)C(=O)O)OCC` (some centres not stated) are 3.1 µM and 10.4 µM.
For `CCCCNC(=S)SC[C@H](NC(C)=O)C(=O)O`, in that order: 201 µM and 224 µM.
As for `CC(=O)N[C@@H](CSC(=S)NCCCCCP(=O)(OC(C)C)OC(C)C)C(=O)O`, the figures for the IC50 (in the test on LoVo [1]; in test [2]) were 2.4 µM and 3.4 µM, respectively.
`CC(=O)N[C@@H](CSC(=S)NCCP(=O)(OCC(C)C)OCC(C)C)C(=O)O`: the IC50 in the test with LoVo [1] amounted to 2.2 µM; in test [2], 3.9 µM.
As for `COP(=O)(CCCCCCN=C=S)c1ccccc1` (configuration not stated), the values for the IC50 (with LoVo [1]; in test [2]) were 1.8 µM and 2.3 µM, respectively.
For the molecule `O=C1c2c(O)ccc(O)c2C(=O)c2c(NCCNCCO)ccc(NCCNCCO)c21` [MITOXANTRONE], the “Ratio IC50” value in [5] came out at 37.
On to `CC(=O)N[C@@H](CSC(=S)NCCCC[S+](C)[O-])C(=O)O` (some centres not stated), for which the values for the IC50 (with LoVo [1]; in test [2]) were 20.5 µM and 14 µM, respectively. In addition, the result in the test with LoVo [4] was Active.
Consider `CC(=O)N[C@@H](CSC(=S)NCCCP(=O)(Oc1ccccc1)Oc1ccccc1)C(=O)O`, for which the figures for the IC50 (in the test with LoVo [1]; in test [2]) were 2 µM and 7.6 µM, respectively.
With `CCOP(=O)(CCCCCNC(=S)SC[C@H](NC(C)=O)C(=O)O)OCC`, the IC50 with LoVo [1] is 2.2 µM; in [2] it was 4 µM.
As to `CC(=O)N[C@@H](CSC(=S)NCCCCCP(=O)(Oc1ccccc1)Oc1ccccc1)C(=O)O`, the IC50 is 1.9 µM in the test with LoVo [1] and 8 µM in test [2].
Regarding `CC(=O)N[C@@H](CSC(=S)NCCCCCCP(=O)(Oc1ccccc1)Oc1ccccc1)C(=O)O`, the figures for the IC50 (in the test on LoVo [1]; in [2]) were 2.5 µM and 11.3 µM, respectively.
In the case of `COc1cccc2c1C(=O)c1c(O)c3c(c(O)c1C2=O)C[C@@](O)(C(=O)CO)C[C@@H]3O[C@H]1C[C@H](N)[C@H](O)[C@H](C)O1` [DOXORUBICIN], the results for the IC50 in the test with MES-SA and in the test with MES-SA/Dx5 were 0.16 µM and 16.2 µM, respectively.
On to `CCOP(=O)(CCNC(=S)SC[C@H](NC(C)=O)C(=O)O)OCC`, for which the IC50 in the test with LoVo [1] stood at 2.2 µM; in [2], 8 µM.
As to `CC(=O)N[C@@H](CSC(=S)NCCCP(=O)(OC(C)C)OC(C)C)C(=O)O`, the values for the IC50 (in the test with LoVo [1]; in test [2]) were 3.1 µM and 8.5 µM, respectively.
`O=P(CCCCCCN=C=S)(c1ccccc1)c1ccccc1`: the values for the IC50 (in the test on LoVo [1]; in test [2]) were 2.2 µM and 3.1 µM, respectively.
For `CC(=O)N[C@@H](CSC(=S)NCCP(=O)(c1ccccc1)c1ccccc1)C(=O)O`, the IC50 with LoVo [1] stood at 2 µM; in [2], 7.7 µM.
With `CCOP(=O)(CCCCN=C=S)c1ccccc1` (configuration not stated), the half-maximal inhibitory concentration (IC50) worked out at 2.5 µM with LoVo [1] and 4.1 µM in test [2].
As for `CC(=O)N[C@@H](CSC(=S)NCCCCCP(=O)(c1ccccc1)c1ccccc1)C(=O)O`, the IC50 was 1.5 µM with LoVo [1] and 4.3 µM in test [2].
Take `CCOP(=O)(CCCNC(=S)SC[C@H](NC(C)=O)C(=O)O)c1ccccc1` (some centres not stated): the IC50 in the test on LoVo [1] was determined as 2.2 µM; in [2], 3.4 µM.
On to `CCOC(OCC)P(=O)(CCCCN=C=S)OCC` (configuration not stated), for which the values for the IC50 (in the test with LoVo [1]; in [2]) were 7 µM and 11.2 µM, respectively.
For `CC(=O)N[C@@H](CSC(=S)NCCCP(=O)(c1ccccc1)c1ccccc1)C(=O)O`, the values for the IC50 (in the test with LoVo [1]; in test [2]) were 4.6 µM and 5.6 µM, respectively.
Consider `CC(=O)N[C@@H](CSC(=S)NCCCCP(=O)(c1ccccc1)c1ccccc1)C(=O)O`, for which the IC50 in the test on LoVo [1] was determined as 4.4 µM; in test [2] it was 8.1 µM.
For `CC(=O)N[C@@H](CSC(=S)NCCCCP(=O)(OCC(C)C)OCC(C)C)C(=O)O`, in that order: 3 µM and 9 µM.
Regarding `CCOP(=O)(CCCCNC(=S)SC[C@H](NC(C)=O)C(=O)O)c1ccccc1` (some centres not stated), the results for the half-maximal inhibitory concentration (IC50) (in the test on LoVo [1]; in [2]) were 2.5 µM and 3.5 µM, respectively.
As for `COP(=O)(CCCCCCNC(=S)SC[C@H](NC(C)=O)C(=O)O)c1ccccc1` (some centres not stated), the IC50 with LoVo [1] turned out to be 2.1 µM; in test [2], 2.8 µM.

These data come from ChEMBL document CHEMBL4229419, “Phosphorus-containing isothiocyanate-derived mercapturic acids as a useful alternative for parental isothiocyanates in experimental oncology” (Bioorg Med Chem Lett, 2018).
